In the OligoGym collection:
Values joined by “and” are separate entries in the source; they are usually repeats but may differ in a detail not shown here. Identical values can stand only once. After the bases stand the sugars from the 5' end (letter, count) and the backbone: PS all phosphorothioate, else s phosphorothioate and o phosphodiester by linkage. Methylation of C is not given here. e = 2'-O-(2-methoxyethyl) (MOE); d = 2'-deoxy (DNA)

Target: DGAT2
Conditions: ASO

Row | Sequence | target mRNA inhibition (HepG2, 0.12 µM) [%] | target mRNA inhibition (HepG2, 2.5 µM) | target mRNA inhibition (HepG2, 10 µM) | target mRNA inhibition (HepG2, 20 µM) [%]
1 | CCTCCTCGAAGATCACCTGC (sugars e5 d10 e5, PS) | 49 |  |  | 
2 | ATGGTGTGTTGGCTCCCTGT (sugars e5 d10 e5, PS) |  | 53% | 53% | 
3 | CCTCAGGAAGGCACAGAAAA (sugars e5 d10 e5, PS) | 40 |  |  | 
4 | CTGCACTCTCTCTGCACACT (sugars e5 d10 e5, PS) |  | 65% and 83% | 81% and 90% | 
5 | AAGTGACAAAGTCTATCAGG (sugars e5 d10 e5, PS) |  | 61% | 87% | 
6 | CAGTTTCGGACCCACTGTGA (sugars e2 d13 e5, PS) | 77 |  |  | 
7 | CAGGCAGCCTGAAGGACACT (sugars e5 d10 e5, PS) | 49 |  |  | 
8 | AGATGGACAGGTGATTCTAA (sugars e5 d10 e5, PS) | 50 |  |  | 
9 | GCAGGTTGTGTGTCTTCACC (sugars e3 d14 e3, PS) | 69 |  |  | 
10 | CAGCACTGACATGGTAAGTC (sugars e5 d10 e5, PS) |  | 79% and 69% | 92% and 97% | 
11 | GCATGGAGCTCAGAGACTCA (sugars e5 d10 e5, PS) | 69 |  |  | 
12 | CACTAATTCTGGGCTTCCAG (sugars e5 d10 e5, PS) |  | 64% | 96% | 
13 | GGTTCTTGTCCTGGTCCCAG (sugars e5 d10 e5, PS) |  | 75% and 77% | 90% and 94% | 
14 | TTTAAATAACCCACAGACAC (sugars e5 d10 e5, PS) | 14 |  |  | 
15 | ACCCCGGAGTAGGCGGCTAT (sugars e5 d10 e5, PS) | 46 |  |  | 
16 | GCCACCTGCTTTGGAACTAA (sugars e5 d10 e5, PS) | 41 |  |  | 
17 | AGTGCTTTCTAAGTACCCTT (sugars e5 d10 e5, PS) |  | 91% and 88% | 90% and 94% | 
18 | GCAGGTTGTGTGTCTTCACC (sugars e2 d13 e5, PS) | 56 |  |  | 
19 | CTGGTCCAGGGAGAGACCAA (sugars e5 d10 e5, PS) | 25 |  |  | 
20 | ACCACAGCGATAATCACACA (sugars e5 d10 e5, PS) |  | 54% | 89% | 
21 | CTGTGGCACTAAGCTAGGCA (sugars e5 d10 e5, PS) |  | 64% | 82% | 

Row | Sequence | target mRNA inhibition (HepG2, 0.12 µM) [%] | target mRNA inhibition (HepG2, 2.5 µM) | target mRNA inhibition (HepG2, 10 µM) | target mRNA inhibition (HepG2, 20 µM) [%]
22 | CTGAATCAAAATCTGCATTT (sugars e5 d10 e5, PS) | 28 |  |  | 
23 | ATCCCAACTCTGCCATTTAA (sugars e5 d10 e5, PS) |  | 60% | 90% | 
24 | TTTTAAATAACCCACAGACA (sugars e5 d10 e5, PS) | 10 | 92% | 60% | 81
25 | GTGATGACTTCCCAGGG (sugars e3 d10 e4, PS) |  | 66% and 82% | 67% and 84% | 
26 | ACCATTTTCACAAGGAGAAG (sugars e5 d10 e5, PS) | 30 |  |  | 
27 | TTGGATAGTCGATTTACCAG (sugars e5 d10 e5, PS) |  | 62% | 92% | 
28 | GTGATTATTCTAAAACTCAA (sugars e5 d10 e5, PS) |  | 34% | 71% | 
29 | GGATGGTGATGGGCTCTCCC (sugars e5 d10 e5, PS) | 67 |  |  | 
30 | CCAGGTGTCGGAGGAGAAGA (sugars e5 d10 e5, PS) | 53 |  |  | 
31 | AGGCCACAGTGGCAACAGAG (sugars e5 d10 e5, PS) | 54 |  |  | 
32 | GCACTAAGCTAGGCACACCC (sugars e5 d10 e5, PS) |  | 62% | 90% | 
33 | GACAAGCGACAGCCCTGTGC (sugars e5 d10 e5, PS) |  | 75% | 79% | 
34 | CACTTGCTTGAGGTCAGGGT (sugars e5 d10 e5, PS) |  | 81% and 75% | 81% and 74% | 
35 | GACTTGCCCAGCAACCCATC (sugars e5 d10 e5, PS) |  | 77% | 54% | 
36 | CACCTGCTTGTACACTTCAT (sugars e5 d10 e5, PS) |  | 59% | 90% | 
37 | CCCACTGGAGCACTGAGATG (sugars e2 d13 e5, PS) | 70 |  |  | 
38 | CATACTAGACTATGCAGCCT (sugars e5 d10 e5, PS) |  | 89% and 69% | 97% and 93% | 
39 | ACCCAACCTTTAAGGCCTAT (sugars e5 d10 e5, PS) |  | 69% and 59% and 70% | 93% and 91% and 95% | 
40 | TCCATGTCAGAGAGGCTCAG (sugars e5 d10 e5, PS) |  | 54% | 91% | 
41 | TTAAAAAAGACCTAACATTG (sugars e5 d10 e5, PS) | 0 |  |  | 
42 | GTATCCTTAAAGCAGGGCCC (sugars e5 d10 e5, PS) |  | 84% and 81% | 85% and 89% | 
